A word on the pIC50: it is −log10 of the IC50, conventionally taken in molar units. A high value points to a small IC50. For orientation: pKi means the Ki on a negative log10 scale, so that one unit is a factor of ten. Read a high pKi as a low Ki.

The target in one test is T1, Rhizopuspepsin (Rhizopus microsporus var. chinensis, UniProt P06026).
T1 sequence (P06026 whole entry): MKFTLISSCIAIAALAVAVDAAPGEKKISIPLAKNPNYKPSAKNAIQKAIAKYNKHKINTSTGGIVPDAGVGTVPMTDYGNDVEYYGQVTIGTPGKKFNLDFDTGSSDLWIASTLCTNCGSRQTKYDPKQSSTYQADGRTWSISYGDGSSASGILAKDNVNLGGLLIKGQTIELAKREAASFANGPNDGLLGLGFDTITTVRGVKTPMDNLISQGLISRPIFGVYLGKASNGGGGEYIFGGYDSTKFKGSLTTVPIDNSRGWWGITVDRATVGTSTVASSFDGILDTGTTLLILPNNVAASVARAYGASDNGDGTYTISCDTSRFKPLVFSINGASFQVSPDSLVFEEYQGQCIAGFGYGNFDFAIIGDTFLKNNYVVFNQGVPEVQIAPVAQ
As to the kind of experiment: Inhibitory concentration against Rhizopus chinensis pepsin. The format is functional.

Test [1] deals with Pepsin A (Homo sapiens, UniProt P0DJD9). As to the kind of experiment: Inhibition of pepsin.
Test [2] has as its target Pepsin A (Sus scrofa, UniProt P00791). As to the kind of experiment: Inhibitory concentration against porcine pepsin.

The structures appear in SMILES notation. pIC50, pKi: −log10 of the molar value. Non-standard residues stand in square brackets, D forms with d. Residues, ends and D or L forms follow the SMILES beside them. *: point of attachment. Sta = CC(C)C[C@H](N)[C@@H](O)CC(=O)O; NHIsopentyl = CC(C)CCN*; X1 = CC(C)CCOC(=O)*

Pepsin A (Homo sapiens, UniProt P0DJD9), sequence (P0DJD9 whole entry): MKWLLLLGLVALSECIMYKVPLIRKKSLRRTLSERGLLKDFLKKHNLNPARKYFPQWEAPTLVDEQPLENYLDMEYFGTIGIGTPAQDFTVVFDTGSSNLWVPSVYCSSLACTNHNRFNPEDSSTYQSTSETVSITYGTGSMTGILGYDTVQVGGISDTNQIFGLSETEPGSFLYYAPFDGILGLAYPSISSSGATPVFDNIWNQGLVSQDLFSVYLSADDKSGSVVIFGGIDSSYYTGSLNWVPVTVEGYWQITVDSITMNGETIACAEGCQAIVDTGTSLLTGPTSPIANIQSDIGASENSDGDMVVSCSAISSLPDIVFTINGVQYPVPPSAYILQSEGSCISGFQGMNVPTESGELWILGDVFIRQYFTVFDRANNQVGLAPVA
Pepsin A (Sus scrofa, UniProt P00791), sequence (P00791 whole entry): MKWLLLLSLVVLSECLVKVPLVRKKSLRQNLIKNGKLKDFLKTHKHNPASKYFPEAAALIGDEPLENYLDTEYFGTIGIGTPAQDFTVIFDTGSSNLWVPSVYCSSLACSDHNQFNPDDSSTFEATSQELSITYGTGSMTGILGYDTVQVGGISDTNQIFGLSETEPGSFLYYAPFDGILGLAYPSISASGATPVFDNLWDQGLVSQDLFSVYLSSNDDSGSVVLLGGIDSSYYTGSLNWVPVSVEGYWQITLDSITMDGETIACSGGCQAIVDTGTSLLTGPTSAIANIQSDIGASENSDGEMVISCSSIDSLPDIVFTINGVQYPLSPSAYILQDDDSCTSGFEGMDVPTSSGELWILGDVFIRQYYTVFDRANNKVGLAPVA

Regarding `O=C(COc1ccc([C@H]2CCNC[C@@H]2OCc2ccc(Br)cc2)cc1)c1ccc2ccccc2c1`, the pIC50 against Rhizopuspepsin is 5.70.

Take `CC(C)CCNC(=O)[C@H](C)NC(=O)C[C@](C)(O)[C@H](CC(C)C)NC(=O)[C@@H](NC(=O)[C@@H](NC(=O)OCCC(C)C)C(C)C)C(C)C`: the pKi on Pepsin A [1] is 5.92.

For `CC(C)CCNC(=O)[C@H](C)NC(=O)C[C@@](C)(O)[C@H](CC(C)C)NC(=O)[C@@H](NC(=O)[C@@H](NC(=O)OCCC(C)C)C(C)C)C(C)C`, the pKi at Pepsin A [1] is 8.82.

On Pepsin A [2], `Brc1ccc(CO[C@H]2CNCC[C@@H]2c2ccccc2)cc1` showed a pIC50 of 6.70. As for `CC(C)CCNC(=O)[C@H](C)NC(=O)C[C@H](O)[C@H](CC(C)C)NC(=O)[C@@H](NC(=O)[C@@H](NC(=O)OCCC(C)C)C(C)C)C(C)C` (X1-VV[Sta]A-NHIsopentyl), the negative-log Ki (pKi) at Pepsin A [1] was 10.00.

Values taken from ChEMBL document CHEMBL1135699, “Designing non-peptide peptidomimetics in the 21st century: inhibitors targeting conformational ensembles” (J Med Chem, 2002).
